In US11919837B1, “4,4′-naphthalene-1,5-diylbis(diazene-2,1-diyl)dinaphthalen-1-ol as an antioxidant compound” (KING FAISAL UNIVERSITY, priority 2023, dated 2024):

Assay: DPPH radical scavenging antioxidant test
Format: biochemical
Conditions: 517 nm; for Inhibition (radical scavenging inhibition): 0.2 mL DPPH (0.75 mM), compound 3 μM in ethanol, 30 min incubation in the dark
Method: The antioxidant properties of the 4,4′-naphthalene-1,5-diylbis(diazene-2,1-diyl)dinaphthalen-1-ol were studied by adding 0.2 mL DPPH (0.75 mM)) to compound 4,4′-naphthalene-1,5-diylbis(diazene-2,1-diyl)dinaphthalen-1-01 (III) (3 μM) in ethanol. After 30 min of incubation in the dark, the absorbance was read against a blank at 517 nm. Ascorbic acid (vitamin C) was used as standard antioxidants (positive control). A blank sample was prepared by 0.2 ml of DPPH in 3 ml ethanol. A negative control sample was run using ethanol instead of the sample. The radical scavenging inhibition was calculated using the following equation: […]

Oc1ccc(N=Nc2cccc3c(N=Nc4ccc(O)c5ccccc45)cccc23)c2ccccc12 [Product III, 4,4′-naphthalene-1,5-diylbis(diazene-2,1-diyl)dinaphthalen-1-ol]
Inhibition (radical scavenging inhibition): 54% | antioxidant potential compared to vitamin C (in words) (DPPH in vitro test, vitamin C as positive control): high potential as an antioxidant compared to vitamin C

O=C1O[C@H]([C@@H](O)CO)C(O)=C1O [vit c, Ascorbic acid, reference compound]
Inhibition (radical scavenging inhibition): 74%
